Laboratory results: a compilation of properties of binary mixtures (doi:10.1016/j.tca.2014.09.015)

Test: xn = mol fraction of the nth substance listed
Conditions: 101 kPa

O + CCOS(=O)(=O)[O-].CC[N+]1(C)CCOCC1
viscosity (303.15 K, x1 = 1): 0.81 mPa·s
viscosity (313.15 K, x1 = 1): 0.68 mPa·s

CCOS(=O)(=O)[O-].CC[N+]1(C)CCOCC1 + O
viscosity (298.15 K, x2 = 0.2761): 690 mPa·s
viscosity (298.15 K, x2 = 0.8745): 7.7 mPa·s
viscosity (303.15 K, x2 = 0.5594): 94 mPa·s
viscosity (303.15 K, x2 = 0.8745): 6.5 mPa·s
viscosity (308.15 K, x2 = 0.5594): 72 mPa·s
viscosity (323.15 K, x2 = 0.7786): 8.8 mPa·s
viscosity (328.15 K, x2 = 0): 780 mPa·s
viscosity (328.15 K, x2 = 0.7786): 7.6 mPa·s
viscosity (338.15 K, x2 = 0.2761): 86 mPa·s
viscosity (343.15 K, x2 = 0.2761): 69 mPa·s
